# Legend:
# wheat = assay: Test B pre/postemergence wheat; assay type: in vivo, Triticum aestivum; conditions: for Wheat plant response rating: scale of 0 to 10 where 0 is no effect and 10 is complete control
# Procedure, shortened: (§1)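 Test chemicals in a non-phytotoxic solvent mixture with surfactant were sprayed preemergence onto planted seeds and postemergence onto plants 2 to 18 cm tall (1- to 4-leaf stage). After twelve to sixteen days in a greenhouse, injury was visually rated against untreated controls from 0 (no effect) to 10 (complete control).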
# pigweed = assay: Test B pre/postemergence pigweed; assay type: in vivo, Amaranthus retroflexus; conditions: for Redroot pigweed plant response rating: scale of 0 to 10 where 0 is no effect and 10 is complete control
# Procedure, shortened: as §1
# wild oat = assay: Test B pre/postemergence wild oat; assay type: in vivo, Avena fatua; conditions: for Wild oats plant response rating: scale of 0 to 10 where 0 is no effect and 10 is complete control
# Procedure, shortened: as §1
# rape = assay: Test B pre/postemergence rape; assay type: in vivo, Brassica napus; conditions: for Rape plant response rating: scale of 0 to 10 where 0 is no effect and 10 is complete control
# Procedure, shortened: as §1
# bamyardgrass = assay: Test B flood test barnyardgrass; assay type: in vivo, Echinochloa crus-galli
# Procedure, shortened: (§2)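 Flood test on plants grown to the 2-leaf stage; treated plants kept in greenhouse twelve to sixteen days, then visually rated against controls on a 0 (no effect) to 10 (complete control) scale.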
# rice = assay: Test B flood test rice; assay type: in vivo, Oryza sativa
# Procedure, shortened: as §2
# corn = assay: Test B pre/postemergence corn; assay type: in vivo, Zea mays; conditions: for Corn plant response rating: scale of 0 to 10 where 0 is no effect and 10 is complete control
# Procedure, shortened: as §1
# morningglory = assay: Test B pre/postemergence morningglory; assay type: in vivo, Ipomoea hederacea; conditions: for Morningglory plant response rating: scale of 0 to 10 where 0 is no effect and 10 is complete control
# Procedure, shortened: as §1
# [1] = Postemergence, Rate 250 g/ha, scale 0 to 10, 0 is no effect, 10 is complete control
# [2] = Preemergence, Rate 62 g/ha, scale 0 to 10 (0 no effect, 10 complete control)
# [3] = Rate 500 g/ha, Postemergence, scale 0 to 10, 0 no effect, 10 complete control
# [4] = Postemergence, Rate 125 g/ha, scale 0 to 10, 0 is no effect, 10 is complete control
# [5] = Postemergence (flood test), Rate 125 g/ha, scale 0 to 10, 0 is no effect, 10 is complete control
# [6] = Rate 62 g/ha, Postemergence (flood test species), scale of 0 to 10 where 0 is no effect and 10 is complete control
# [7] = Rate 62 g/ha, flood test species, Pre-emergence, visual evaluation after twelve to sixteen days
# [8] = Rate 125 g/ha, under heading Pre-emergence, flood test species, visual evaluation after twelve to sixteen days
# [9] = Rate 250 g/ha, Pre-emergence, flood-test species, scale 0 to 10, 0 is no effect, 10 is complete control
# [10] = Rate 500 g/ha, listed under Postemergence (flood test species), scale 0 to 10, 0 no effect, 10 complete control
# [11] = Rate 500 g/ha, Pre-emergence, flood test species, scale 0 to 10 (0 no effect, 10 complete control)
# [12] = flood test species, listed under Postemergence, Rate 250 g/ha, scale 0 to 10, 0 is no effect, 10 is complete control
smiles,measurement,setting,value
CC1CC1n1c(=O)on(C(=O)N(c2ccc(F)cc2F)C(C)C)c1=O (centres unmarked) [Compound 372],"Plant response rating, Wheat",wheat; [1],0
same,"Plant response rating, Wheat",wheat; [2],0
same,Wheat plant response rating (0 to 10 scale),"wheat; Preemergence, Rate 125 g/ha",0
same,Wheat plant response rating,"wheat; Preemergence, Rate 250 g/ha",0
same,Wheat plant response rating,"wheat; Preemergence, Rate 500 g/ha",6
same,Wheat plant response rating,"wheat; Rate 62 g/ha, Postemergence",0
same,"Plant response rating, Wheat",wheat; [3],2
same,"Plant response rating, Redroot pigweed",pigweed; [4],3
same,"Plant response rating, Redroot pigweed",pigweed; [1],6
same,"Plant response rating, Redroot pigweed",pigweed; [2],6
same,Redroot pigweed plant response rating (0 to 10 scale),"pigweed; Preemergence, Rate 125 g/ha",10
same,Redroot pigweed plant response rating,"pigweed; Preemergence, Rate 250 g/ha",10
same,Redroot pigweed plant response rating,"pigweed; Preemergence, Rate 500 g/ha",10
same,Redroot pigweed plant response rating,"pigweed; Rate 62 g/ha, Postemergence",2
same,"Plant response rating, Redroot pigweed",pigweed; [3],9
same,"Plant response rating, Wild oats",wild oat; [4],4
same,"Plant response rating, Wild oats",wild oat; [1],5
same,"Plant response rating, Wild oats",wild oat; [2],4
same,Wild oats plant response rating (0 to 10 scale),"wild oat; Preemergence, Rate 125 g/ha",7
same,Wild oats plant response rating,"wild oat; Preemergence, Rate 250 g/ha",9
same,Wild oats plant response rating,"wild oat; Preemergence, Rate 500 g/ha",10
same,Wild oats plant response rating,"wild oat; Rate 62 g/ha, Postemergence",2
same,"Plant response rating, Wild oats",wild oat; [3],8
same,"Plant response rating, Rape",rape; [1],3
same,"Plant response rating, Rape",rape; [2],5
same,Rape plant response rating (0 to 10 scale),"rape; Preemergence, Rate 125 g/ha",5
same,Rape plant response rating,"rape; Preemergence, Rate 250 g/ha",10
same,Rape plant response rating,"rape; Preemergence, Rate 500 g/ha",10
same,Rape plant response rating,"rape; Rate 62 g/ha, Postemergence",2
same,"Plant response rating, Rape",rape; [3],5
same,"Plant response rating, Barnyardgrass",bamyardgrass; [5],0
same,Barnyardgrass plant response rating,bamyardgrass; [6],0
same,"Plant response rating, Barnyardgrass (0 to 10 scale, 0 is no effect, 10 is complete control)",bamyardgrass; [7],0
same,"Barnyardgrass plant response rating (0 to 10 scale, 0 is no effect, 10 is complete control)",bamyardgrass; [8],0
same,Barnyardgrass plant response rating,bamyardgrass; [9],0
same,"Plant response rating, Barnyardgrass",bamyardgrass; [10],6
same,Barnyardgrass plant response rating,bamyardgrass; [11],0
same,"Plant response rating, Barnyardgrass",bamyardgrass; [12],4
same,"Plant response rating, Rice",rice; [5],0
same,Rice plant response rating,rice; [6],0
same,"Plant response rating, Rice (0 to 10 scale, 0 is no effect, 10 is complete control)",rice; [7],0
same,"Rice plant response rating (0 to 10 scale, 0 is no effect, 10 is complete control)",rice; [8],0
same,Rice plant response rating,rice; [9],0
same,"Plant response rating, Rice",rice; [10],2
same,Rice plant response rating,rice; [11],0
same,"Plant response rating, Rice",rice; [12],2
same,"Plant response rating, Corn",corn; [4],0
same,"Plant response rating, Corn",corn; [1],0
same,"Plant response rating, Corn",corn; [2],2
same,Corn plant response rating (0 to 10 scale),"corn; Preemergence, Rate 125 g/ha",2
same,Corn plant response rating,"corn; Preemergence, Rate 250 g/ha",9
same,Corn plant response rating,"corn; Preemergence, Rate 500 g/ha",9
same,Corn plant response rating,"corn; Rate 62 g/ha, Postemergence",0
same,"Plant response rating, Corn",corn; [3],3
same,"Plant response rating, Morningglory",morningglory; [4],7
same,"Plant response rating, Morningglory",morningglory; [1],7
same,"Plant response rating, Morningglory",morningglory; [2],0
same,Morningglory plant response rating (0 to 10 scale),"morningglory; Preemergence, Rate 125 g/ha",0
same,Morningglory plant response rating,"morningglory; Preemergence, Rate 250 g/ha",2
same,Morningglory plant response rating,"morningglory; Preemergence, Rate 500 g/ha",3
same,Morningglory plant response rating,"morningglory; Rate 62 g/ha, Postemergence",5
same,"Plant response rating, Morningglory",morningglory; [3],10

# Source: patent publication US6737383B1, “Herbicidal oxadiazolidines” (priority 1999, dated 2004)
